# Measurements published in patent US11247987B2, “Inhibiting ubiquitin specific peptidase 30” (FORMA Therapeutics, Inc., priority 2017, dated 2022).
# pIC50: −log10 of the molar value.
# Biological target: T1, human recombinant USP30 (Homo sapiens, UniProt Q70CQ3)
# T1 construct: purchased Boston Biochem E-582
# T1 sequence (Q70CQ3 1-517): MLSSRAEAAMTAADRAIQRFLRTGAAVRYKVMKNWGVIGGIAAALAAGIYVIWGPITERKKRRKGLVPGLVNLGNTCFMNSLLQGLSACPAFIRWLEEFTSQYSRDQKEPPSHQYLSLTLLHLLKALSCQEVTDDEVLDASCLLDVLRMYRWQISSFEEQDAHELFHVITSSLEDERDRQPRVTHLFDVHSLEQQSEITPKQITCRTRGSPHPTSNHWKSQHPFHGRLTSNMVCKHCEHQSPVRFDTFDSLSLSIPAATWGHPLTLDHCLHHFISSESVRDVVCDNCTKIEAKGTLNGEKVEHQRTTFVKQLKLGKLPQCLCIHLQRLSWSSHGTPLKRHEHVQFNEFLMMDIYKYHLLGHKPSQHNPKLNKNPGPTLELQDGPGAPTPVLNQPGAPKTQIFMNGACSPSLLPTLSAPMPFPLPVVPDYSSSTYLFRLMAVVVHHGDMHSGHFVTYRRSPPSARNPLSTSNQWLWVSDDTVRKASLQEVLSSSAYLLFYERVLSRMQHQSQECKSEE
# Assay: Ubiquitin-Rhodamine 110 Assay for USP30 Activity (USP30 Inhibitor Biochemical Assay)
# Conditions: 0.2 nM USP30, 25 nM Ub-Rh110, 30 min preincubation, 30 min at room temperature; read-out: USP30 potency range (USP30 biochemical IC50 assay, IC50 ranges)
# Method: Example A: Biochemical Assay: Ubiquitin-Rhodamine 110 Assay for USP30 Activity (USP30 Inhibitor Biochemical Assay)
# The assay was performed in a final volume of 9 μL in assay buffer containing 20 mM Tris-HCl (pH 8.0, (1M Tris-HCl, pH 8.0 solution; Corning 46-031-CM)), 1 mM GSH (L-glutathione reduced, Sigma-Aldrich, G4251-100G), 0.03% BGG (0.22 μM filtered, Sigma, G7516-25G), and 0.01% Triton X-100 (Sigma, T9284-10L). Nanoliter quantities of 10-point, 3-fold serial dilution in DMSO were pre-dispensed into 1536 assay plates (Corning, #3724BC) for a final test concentration of 25 μM to 1.3 nM, top to lowest dose, respectively. Concentration and incubation times were optimized for the maximal signal-to-background while maintaining initial velocity conditions at a fixed substrate concentration. The final concentration of USP30 (human recombinant USP30, Boston Biochem, cat. # E-582) in the assay was 0.2 nM. […] 3 μL of 2×USP30 was added to assay plates (pre-stamped with compound), preincubated for 30 minutes and then treated with 3 μL of 2×Ub-Rh110. Plates were incubated for 30 minutes at room temperature before addition of 3 μL of stop solution (final concentration of 10 mM citric acid (Sigma, 251275-500G)). Fluorescence was read on the Envision (excitation at 485 nm and emission at 535 nm; Perkin Elmer) or on the PheraSTAR (excitation at 485 nm and emission at 535 nm; BMG Labtech).
# For all assay formats data were reported as percent inhibition compared with control wells based on the following equation: % inh=1−((FLU−AveLow)/(AveHigh−AveLow)) where FLU=measured Fluorescence, AveLow=average Fluorescence of no enzyme control (n=16), and AveHigh=average Fluorescence of DMSO control (n=16). IC50 values were determined by curve fitting of the standard 4 parameter logistic fitting algorithm included in the Activity Base software package: IDBS XE Designer Model205. Data is fitted using the Levenburg Marquardt algorithm.
row,SMILES,pIC50
1,"CC(C)(C)c1sc(NC(=O)[C@]2(F)C[C@@H](NC#N)C2)nc1Cl [Compound 1-59, (1s,3s)-N-(5-tert-butyl-4-chloro-1,3-thiazol-2-yl)-3-(cyanoamino)-1-fluorocyclobutane-1-carboxamide]",6.00 to 7.00
2,"N#CN[C@H]1CCC[C@@H]1C(=O)Nc1ncc(C2CCCCC2)s1 [Compound 10-9, (1S,2S)-2-(cyanoamino)-N-(5-cyclohexyl-1,3-thiazol-2-yl)cyclopentane-1-carboxamide]",5.00 to 6.00
3,"CO[C@]1(C(=O)Nc2nc(Cl)c(C(C)(C)C)s2)C[C@@H](NC#N)C1 [Compound 8-1, N-(5-tert-butyl-4-chloro-1,3-thiazol-2-yl)-3-(cyanoamino)-1-methoxycyclobutane-1-carboxamide]",> 7.00
4,"N#CN[C@H]1C[C@H](C(=O)Nc2cc(-c3cccc(Cl)c3)on2)C1 [Compound 1-43, (1r,3r)-N-[5-(3-chlorophenyl)-1,2-oxazol-3-yl]-3-(cyanoamino)cyclo-butane-1-carboxamide]",6.00 to 7.00
5,"CC(C)(C)c1cnc(NC(=O)[C@H]2C[C@H](NC#N)C2)s1 [Compound 5-13, trans-N-(5-tert-butyl-1,3-thiazol-2-yl)-3-(cyanoamino)cyclobutane-1-carboxamide]",6.00 to 7.00
6,"N#CN[C@H]1C[C@H](C(=O)Nc2nc(Cl)c(C3CC3)s2)C1 [Compound 1-36, (1r,3r)-N-(4-chloro-5-cyclopropyl-1,3-thiazol-2-yl)-3-(cyanoamino)cyclo-butane-1-carboxamide]",> 7.00
7,"N#CN[C@H]1C[C@H](C(=O)Nc2cc(Cl)n(C3CCCCC3)n2)C1 [Compound 1-39, (1r,3r)-N-(5-chloro-1-cyclohexyl-1H-pyrazo1-3-yl)-3-(cyanoamino)cyclo-butane-1-carboxamide]",6.00 to 7.00
8,"N#CN[C@H]1C[C@H](C(=O)Nc2ncc([C@@H]3CCCC[C@@H]3C(F)(F)F)s2)C1 [Compound 1-33, (1r,3r)-3-(cyanoamino)-N-{5-[(1R,2S)-2-(trifluoromethyl)cyclo-hexyl]-1,3-thiazol-2-yl}cyclobutane-1-carboxamide]",6.00 to 7.00
9,"N#CN[C@H]1C[C@@H](NC(=O)c2ncc(-c3ccccc3)s2)C1 [Compound 4-1, 5-phenyl-N-[(cis)-3-(cyanoamino)cyclobutyl]-1,3-thiazole-2-carboxamide]",5.00 to 6.00
10,"N#CN[C@H]1C[C@H](C(=O)Nc2nc(Cl)c(C3CCCCC3)s2)C1 [Compound 1-10, (1r,3r)-N-(4-chloro-5-cyclohexyl-1,3-thiazol-2-yl)-3-(cyanoamino)cyclo-butane-1-carboxamide]",> 7.00
11,"N#CN[C@H]1C[C@H](C(=O)Nc2ncc(C3CCCCC3)o2)C1 [Compound 1-53, (1r,3r)-3-(cyanoamino)-N-(5-cyclohexyl-1,3-oxazol-2-yl)cyclobutane-1-carboxamide]",6.00 to 7.00
12,"Cn1cc(-c2ccc(-c3cc(C(=O)N4CC[C@]45C[C@@H](NC#N)C5)on3)cc2)cn1 [Compound 3-5, {[(4r,6s)-1-{3-[4-(1-methyl-1H-pyrazol-4-yl)phenyl]-1,2-oxazole-5-carbonyl}-1-azaspiro[3.3]heptan-6-yl]amino} carbonitrile]",6.00 to 7.00
13,"CN(c1nc(Cl)c(C2CCCCC2)s1)C(=O)[C@H]1C[C@H](NC#N)C1 [Compound 1-49, (1r,3r)-N-(4-chloro-5-cyclohexyl-1,3-thiazol-2-yl)-3-(cyanoamino)-N-methylclycobutane-1-carboxamide]",> 7.00
14,"CC1(C)[C@@H]2CC[C@@H](CNC(=O)[C@H]3C[C@H](NC#N)C3)[C@H]1C2 [Compound 1-67, (1r,3r)-3-(cyanoamino)-N-{[(1R,2R,5R)-6,6-dimethylbicyclo[3.1.1]heptan-2-yl]methyl}cyclo-butane-1-carboxamide]",6.00 to 7.00
15,"N#CN[C@H]1C[C@H](C(=O)Nc2ncc([C@H]3CC4CCC3CC4)s2)C1 [Compound 1-38, (1r,3r)-N-{5-[(2S)-bicyclo[2.2.2]octan-2-yl]-1,3-thiazol-2-yl}-3-(cyanoamino)cyclo-butane-1-carboxamide]",6.00 to 7.00
16,"N#CN[C@H]1C[C@@H](C(=O)Nc2cnn(-c3ccccc3)c2)C1 [Compound 5-1, cis-3-(cyanoamino)-N-(1-phenyl-1H-pyrazol-4-yl)cyclobutane-1-carboxamide]",5.00 to 6.00
17,"N#CN[C@H]1C[C@H](N2C[C@@H](Nc3ncc(C4CCCCC4)s3)CC2=O)C1 (single isomer, unassigned) [Compound 6-1]",6.00 to 7.00
18,"C[C@]1(C(=O)Nc2nc(Cl)c(C3CCCCC3)s2)C[C@H](NC#N)C1 [Compound 1-44, (1r,3s)-N-(4-chloro-5-cyclohexyl-1,3-thiazol-2-yl)-3-(cyanoamino)-1-methylcyclobutane-1-carboxamide]",> 7.00
19,"N#CN[C@H]1CC[C@H](C(=O)Nc2ccc3c(c2)CCC3)C1 [Compound 12-5, (1S,3S)-3-(cyanoamino)-N-(2,3-dihydro-1H-inden-5-yl)cyclopentane-1-carboxamide]",4.60 to 5.00
20,"CC(C)(C)c1sc(NC(=O)[C@]2(F)C[C@H](NC#N)C2)nc1Cl [Compound 1-60, (1r,3r)-N-(5-tert-butyl-4-chloro-1,3-thiazol-2-yl)-3-(cyanoamino)-1-fluorocyclobutane-1-carboxamide]",> 7.00
21,"N#CN[C@H]1C[C@H](C(=O)Nc2ncc([C@@H]3CC4CCC3CC4)s2)C1 [Compound 1-37, (1r,3r)-N-{5-[(2R)-bicyclo[2.2.2]octan-2-yl]-1,3-thiazol-2-yl}-3-(cyanoamino)cyclo-butane-1-carboxamide]",> 7.00
22,"N#CN[C@H]1C[C@H](C(=O)Nc2nc(C(F)(F)F)c(C3CCCCC3)s2)C1 [Compound 1-31, (1r,3r)-3-(cyanoamino)-N-[5-cyclohexyl-4-(trifluoromethyl)-1,3-thiazol-2-yl]cyclobutane-1-carboxamide]",> 7.00
23,"CC(C)(C)c1sc(NC(=O)[C@]2(Cl)C[C@H](NC#N)C2)nc1Cl (single isomer, unassigned) [Compound 9-2, (1r,3r)-N-(5-tert-butyl-4-chloro-1,3-thiazol-2-yl)-1-chloro-3-(cyanoamino)cyclobutane-1-carboxamide]",6.00 to 7.00
24,"CN(c1cnc(C2CCCCC2)s1)C(=O)[C@H]1C[C@H](NC#N)C1 [Compound 1-4, (1r,3r)-3-(cyanoamino)-N-(2-cyclohexyl-1,3-thiazol-5-yl)-N-methylcyclobutane-1-carboxamide]",6.00 to 7.00
25,"CCC1(C(=O)Nc2cnc(C3CCCCC3)s2)CC(NC#N)C1 (stereo not shown) [Compound 1-46, (1r,3s)-3-(cyanoamino)-N-(2-cyclohexyl-1,3-thiazol-5-yl)-1-ethylcyclobutane-1-carboxamide]",6.00 to 7.00
26,"N#CN[C@H]1C[C@H](C(=O)Nc2nc3cccc(OC4CCC4)c3s2)C1 [Compound 1-64, (1r,3r)-3-(cyanoamino)-N-(7-cyclobutoxy-1,3-benzothiazol-2-yl)cyclobutane-1-carboxamide]",6.00 to 7.00
27,"Cc1cc(NC(=O)[C@H]2C[C@H](NC#N)C2)cc(-c2ccccc2F)c1 [Compound 1-61, (1r,3r)-3-(cyanoamino)-N-[3-(2-fluorophenyl)-5-methylphenyl]cyclo-butane-1-carboxamide]",6.00 to 7.00
28,"N#CNC1CC2(CCN2C(=O)c2cnc(-c3ccccc3)s2)C1 (stereo not drawn) [Compound 3-2, {[1-(2-phenyl-1,3-thiazole-5-carbonyl)-l-azaspiro[3.3]heptan-6-yl]amino} carbonitrile]",6.00 to 7.00
